Common to all, as to format: ADME, organism-based
Series [1] in a line: Distribution half life at alpha phase in HIV-seronegative human at 600 mg, po by two compartment model. The following applies: in vivo.
Series [2] can be described thus: Total clearance in HIV-seronegative human at 600 mg, po by two compartment model. The note with it: in vivo.
A short description of series [3]: Elimination half life at beta phase in HIV-seronegative human at 600 mg, po by two compartment model. The note with it: in vivo.
Series [4] can be described thus: Central volume of distribution in HIV-seronegative human at 600 mg, po by two compartment model. The following applies: in vivo, read-out: Vc/F.

Turning to `CC(C)CN(C[C@@H](O)[C@H](Cc1ccccc1)NC(=O)O[C@H]1CCOC1)S(=O)(=O)c1ccc(N)cc1` [AMPRENAVIR], the half-life in series [1] is 0.547 h; in series [3] it was 15.8 h. Also, the CL/F in series [2] was 19.4 mL/min/kg. Also, in series [4], the Vd/F is 1.21 L/kg.

What is called half-life is the time needed for the level to fall by half in the phase considered. In general, CL/F refers to the apparent clearance, not corrected for the fraction that reaches the circulation.

(Values after ChEMBL document CHEMBL1143830, “Compartmental pharmacokinetic analysis of oral amprenavir with secondary peaks” (Antimicrob Agents Chemother, 2007).)
